Columns and labels:
Assay type in all cases: cell-based, human
Foxp3 (forkhead box P3) = test: Expression of psoriasis-related transcription factor Foxp3 in induced inflammatory condition; conditions: IL-17A/TNFα- or IL-17A/IFNγ-induced inflammatory condition
Protocol: [The source words this procedure for another target and says it was used here with some conditions changed.] (§1) A psoriasis-related genes were selected from the cDNA array result in which Compound 8 of the present invention was treated in HaCaT cells. In order to analyze whether Compound 8 has an effect on psoriasis alleviation, RT-PCR analysis for IL-36′ (interleukin 36 gamma), KLK7 (Kallikrein-related peptidase 7), OASL (2′-5′-Oligoadenylate Synthetase Like) and ALOX12B (Arachidonate 12-lipoxygenase, 12R type) which are very closely related to psoriasis was carried out. Further, KRT16 (Keratin 16), KRT6 (Keratin 6) and KRT1 (Keratin 1), known as psoriasis-related proliferation, differentiation markers were confirmed by a western blot analysis. As the specific experimental method, HEKa cells (Human Epidermal keratinocytes, adult), human-derived epidermal keratinocytes were seeded on a 24 well plate at a density of 1×10^5 cells, and cultured in an EpiLife medium (1× Human keratinocyte Growth supplement, 1× antibiotics) in an incubator under 37° C. and 5% CO2 for 24 hours. […]

[1] = test system: IL-1β (interleukin-1beta); test: ELISA for IL-1β in LPS-treated HEKa cells; conditions: LPS-induced inflammatory condition, 10·M, FIG. 10
Protocol: ELISA (enzyme-linked immunosorbent assay) for IL-1β (interleukin-1beta) which is very closely related to atopic inflammation and psoriasis was performed.
As a specific experimental method, HEKa cells (Human Epidermal keratinocytes, adult), human-derived epidermal keratinocytes were seeded on a 24 well plate at a density of 1×10^5 cells, and cultured in an EpiLife medium (1× Human keratinocyte Growth supplement, 1× antibiotics) in an incubator under 37° C. and 5% CO2 for 24 hours.
After culturing, while an inflammatory condition was induced by treatment with LPS (lipopolysaccharides) in each well, further treatment was performed with Compound 8 of the present invention and the compound of the following Comparative Example at a concentration of 10·M, and then the cells were incubated for a certain period. After completing culturing, media were collected, and then ELISA for IL-1β was carried out, and the results are shown in FIG. 10.

KRT16 (Keratin 16) = test: Western blot of proliferative marker KRT16; conditions: FIG. 4
Protocol: as §1

[2] = test system: CCL20 (Chemokine (C-C motif) ligand 20); test: Cytokine gene expression, CCL20, IL-17A/TNF-α condition; conditions: FIG. 9
[3] = test system: ULK-1 (Serine/threonine-protein kinase-1); test: Western blot for ULK-1 protein; conditions: HaCaT cells; 20 uM dilution, 1 ml added to 1 ml medium; FIG. 1
Protocol: In order to analyze which gene expression is related to increased autophagy activation by Compound 8 of the present invention, a western blot analysis for Beclin-1 and ULK-1 (Serine/threonine-protein kinase-1) proteins which are closely related to autophagy activation was performed.
As a specific experimental method, HaCaT cells, human-derived keratinocytes were seeded on a 60Ø dish at a density of 3×10^5 cells, and cultured in DMEM (Dulbecco's Modified Eagle Media, Gibco BRL) in an incubator under 37° C. and 5% CO2 for 24 hours. Compound 8 of the present invention was dissolved in DMSO at a concentration of 10 mM each to be a concentrate, and diluted with a medium to be at a concentration of 20 uM. Then in a state where 1 ml of medium was first in each well, 1 ml of each diluted solution was added thereto for treatment, and cultured for a certain period, and after completing the culturing, the medium was removed, and then cells were disrupted with a SDS sample buffer, and each protein was separated by SDS-PAGE gel electrophoresis, and transferred to a PVDF membrane. […]

[4] = test system: IL-36γ (interleukin 36, gamma); test: Cytokine gene expression, IL-36γ, IL-17A/TNF-α condition; conditions: FIG. 9
IL-8 (interleukin-8) = test: Cytokine gene expression, IL-8, IL-17A/TNF-α condition; conditions: FIG. 9
[5] = test system: ALOX12B (Arachidonate 12-lipoxygenase, 12R type); test: RT-PCR of psoriasis-related gene ALOX12B; conditions: HEKa cells, 20 uM, FIGS. 2 and 3
Protocol: as §1

[6] = test system: LC3 (light chain 3) protein; test: Western blot for LC3 protein, autophagy activation; conditions: HaCaT cells; 20 uM dilution, 1 ml added to 1 ml medium; FIG. 1
Protocol: In order to analyze increased intracellular autophagy activation by treatment of Compound 8 of the present invention, a western blot analysis for LC3 (light chain 3) protein was performed.
As a specific experimental method, HaCaT, human epidermal keratinocytes were seeded in on a 6 well plate at a density of 3×10^5 cells, and cultured in DMEM (Dulbecco's Modified Eagle Media, Gibco BRL) in an incubator under 37° C. and 5% CO2 for 24 hours. Compound 8 of the present invention was dissolved in DMSO at a concentration of 10 mM to be a concentrate, and diluted with a medium to be at a concentration of 20 uM. Then in a state where 1 ml of medium was first in each well, 1 ml of each diluted solution was added thereto for treatment, and cultured for a certain period, and after completing the culture, the medium was removed, and then cells were disrupted with a SDS sample buffer, and each protein was separated by SDS-PAGE gel electrophoresis, and transferred to a PVDF (polyvinylidene fluoride) membrane. Thereafter, non-specific binding was eliminated using a blocking buffer, and an antibody against LC3 protein and a HRP-bound secondary antibody (anti-rabbit IgG HRP (sigma)) were reacted, and then an enhanced chemiluminescence (ECL) reaction using an ECL prime kit (Amersham Pharmacia) was carried out, thereby performing a ChemiDoc analysis.

CCCCCCCCCCCCCCCC(=O)NCCCC[C@H](NC(=O)[C@H](CCCCN(CC(=O)O)CC(=O)O)N(CC(=O)O)CC(=O)O)C(=O)O [Compound 8]
expression level of Foxp3 (Foxp3 (forkhead box P3)): reduced | cytokine IL-1β secretion level [1]: significantly reduced | KRT16 (proliferative marker) level (KRT16 (Keratin 16)): reduced | expression level of CCL20 [2]: reduced | expression of ULK-1 protein [3]: significantly increased | expression level of IL-36γ [4]: reduced | expression level of IL-8 (IL-8 (interleukin-8)): reduced | expression level of ALOX12B gene [5]: significantly decreased | production of LC3-II [6]: increased

Source: patent US10617662B2, “Autophagy activation-induced compound for improving skin inflammation for aging” (INCOSPHARM CORPORATION, priority 2017, dated 2020)
